Test results as given in ChEMBL document CHEMBL3232855, “The discovery of N-((2H-tetrazol-5-yl)methyl)-4-((R)-1-((5r,8R)-8-(tert-butyl)-3-(3,5-dichlorophenyl)-2-oxo-1,4-diazaspiro[4.5]dec-3-en-1-yl)-4,4-dimethylpentyl)benzamide (SCH 900822): a potent and selective glucagon receptor antagonist” (J Med Chem, 2014).
pIC50, pKi: −log10 of the molar value. Activity calls are given as the source filed them. The calls are words filed in the database; no cut-off is given here.

Legend:
[1] = Half life in dog at 1 mg/kg, iv; format: ADME, organism-based, Canis lupus familiaris; set-up: dose 1 mg/kg, route intravenous; details: in vivo
[2] = Plasma clearance in dog at 1 mg/kg, iv; format: ADME, organism-based, Canis lupus familiaris; set-up: dose 1 mg/kg, route intravenous
[3] = tested on: Mus musculus; test: Antidiabetic activity in diet-induced obese ICR mouse model assessed as inhibition of glucagon-induced glucose excursion at 10 to 30 mg/kg, po bid measured for 60 mins by glucometer; format: functional, organism-based
[4] = target: T1, Adenosine receptor A3 (Homo sapiens, UniProt P0DMS8); test: Binding affinity to adenosine A3 receptor (unknown origin) by agonist displacement assay
T1 sequence (P0DMS8 whole entry): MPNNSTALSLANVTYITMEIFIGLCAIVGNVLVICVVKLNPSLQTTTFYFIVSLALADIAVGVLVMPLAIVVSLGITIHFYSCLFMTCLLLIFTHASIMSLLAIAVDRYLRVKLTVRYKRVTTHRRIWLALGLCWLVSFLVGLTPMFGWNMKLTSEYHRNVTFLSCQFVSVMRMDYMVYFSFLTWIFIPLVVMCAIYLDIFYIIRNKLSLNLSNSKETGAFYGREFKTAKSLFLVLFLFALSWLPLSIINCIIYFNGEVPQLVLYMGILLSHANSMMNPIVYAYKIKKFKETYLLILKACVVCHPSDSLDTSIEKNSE

[5] = target: T2, Adenosine receptor A3 (Homo sapiens) (UniProt P0DMS8); details: 10 uM
T2 sequence (whole entry): T1 sequence (P0DMS8 whole entry)
Description: Binding affinity to adenosine A3 receptor (unknown origin) at 10 uM by agonist displacement assay relative to control

[6] = tested on: Mus musculus; test: Dose-normalized AUC in mouse at 3 mg/kg, po; format: ADME, organism-based; set-up: dose 3 mg/kg, route oral; details: in vivo
[7] = Oral bioavailability in mouse at 3 mg/kg; format: ADME, organism-based; details: in vivo
[8] = tested on: Canis familiaris; test: Dose-normalized AUC in dog at 5 mg/kg, po; format: ADME, organism-based, Canis lupus familiaris; set-up: dose 5 mg/kg, route oral; details: in vivo
[9] = Plasma concentration in streptozotocin-induced ICR mouse type-2 diabetic model at 30 mg/kg, po measured at 8 hrs by HPLC/MS/MS analysis; format: ADME, organism-based; set-up: dose 30 mg/kg, route oral
[10] = Plasma concentration in diet-induced obese ICR mouse model at 3 mg/kg, po measured at 24 hrs by HPLC/MS/MS analysis; format: ADME, organism-based; set-up: dose 3 mg/kg, route oral
[11] = tested on: Rhesus monkey; test: Dose-normalized AUC in monkey at 3 mg/kg, po; format: ADME, organism-based, Macaca mulatta; set-up: dose 3 mg/kg, route oral; details: in vivo
[12] = tested on: Mus musculus; test: Antidiabetic activity in streptozotocin-induced ICR mouse type-2 diabetic model assessed as decrease in fasting blood glucose level at 30 mg/kg, po measured at 8 hrs by glucometer relative to vehicle-treated control; format: functional, organism-based; set-up: dose 30 mg/kg
[13] = target: T3, Glucagon receptor (Homo sapiens, UniProt P47871); test: Antagonist activity at human GCGR expressed in CHO cells assessed as inhibition of glucagon-stimulated cAMP production preincubated for 30 mins followed by glucagon induction measured after 45 mins by LANCE assay; format: functional, cell-based
[14] = Oral bioavailability in dog at 5 mg/kg; format: ADME, organism-based, Canis lupus familiaris; details: in vivo
[15] = Plasma clearance in monkey at 3 mg/kg, iv; format: ADME, organism-based, Macaca mulatta; set-up: dose 3 mg/kg, route intravenous; details: rhesus monkey
[16] = Plasma concentration in streptozotocin-induced ICR mouse type-2 diabetic model at 10 mg/kg, po measured at 8 hrs by HPLC/MS/MS analysis; format: ADME, organism-based; set-up: dose 10 mg/kg, route oral
[17] = Half life in rat at 3 mg/kg, iv; format: ADME, organism-based; set-up: dose 3 mg/kg, route intravenous; details: in vivo
[18] = Half life in mouse at 3 mg/kg, iv; format: ADME, organism-based; set-up: dose 3 mg/kg, route intravenous; details: in vivo
[19] = Oral bioavailability in monkey at 3 mg/kg; format: ADME, organism-based, Macaca mulatta; details: rhesus monkey, in vivo
[20] = tested on: Rattus norvegicus; test: Dose-normalized AUC in rat at 3 mg/kg, po; format: ADME, organism-based; set-up: dose 3 mg/kg, route oral; details: in vivo
[21] = Plasma concentration in diet-induced obese ICR mouse model at 10 mg/kg, po measured at 24 hrs by HPLC/MS/MS analysis; format: ADME, organism-based; set-up: dose 10 mg/kg, route oral
[22] = target: T4, Gastric inhibitory polypeptide receptor (Homo sapiens, UniProt P48546); test: Antagonist activity at human GIPR assessed as inhibition of cAMP production; format: functional
T4 sequence (P48546 whole entry): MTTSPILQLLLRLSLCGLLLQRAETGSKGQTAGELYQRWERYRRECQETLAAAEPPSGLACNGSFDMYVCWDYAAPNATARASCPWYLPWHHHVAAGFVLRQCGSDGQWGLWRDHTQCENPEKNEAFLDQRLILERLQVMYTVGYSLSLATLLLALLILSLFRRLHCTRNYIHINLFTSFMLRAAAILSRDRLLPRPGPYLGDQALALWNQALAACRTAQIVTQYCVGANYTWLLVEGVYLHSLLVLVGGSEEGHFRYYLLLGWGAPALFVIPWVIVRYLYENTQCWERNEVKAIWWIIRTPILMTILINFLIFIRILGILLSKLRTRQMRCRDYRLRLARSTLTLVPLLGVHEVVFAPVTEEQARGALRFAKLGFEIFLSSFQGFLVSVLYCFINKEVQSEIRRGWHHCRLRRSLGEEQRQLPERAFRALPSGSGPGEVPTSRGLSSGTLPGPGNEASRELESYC

[23] = Plasma clearance in mouse at 3 mg/kg, iv; format: ADME, organism-based; set-up: dose 3 mg/kg, route intravenous
[24] = tested on: Mus musculus; test: Antidiabetic activity in diet-induced obese ICR mouse model assessed as decrease in nonfasting blood glucose level at 3 to 10 mg/kg, po measured at 24 hrs by glucometer; format: functional, organism-based
[25] = Half life in monkey at 3 mg/kg, iv; format: ADME, organism-based, Macaca mulatta; set-up: dose 3 mg/kg, route intravenous; details: rhesus monkey, in vivo
[26] = Volume of distribution at steady state in monkey at 3 mg/kg, iv; format: ADME, organism-based, Macaca mulatta; set-up: dose 3 mg/kg, route intravenous; details: rhesus monkey, in vivo, read-out: Vdss
[27] = Volume of distribution at steady state in rat at 3 mg/kg, iv; format: ADME, organism-based; set-up: dose 3 mg/kg, route intravenous; details: in vivo, read-out: Vdss
[28] = target: T3, Glucagon receptor; test: biochemical; format: cell-based, CHO
Description: Displacement of [125I]-glucagon from recombinant human GCGR expressed in CHO cells after 60 mins by scintillation counting analysis

[29] = tested on: Mus musculus; test: Antidiabetic activity in diet-induced obese ICR mouse model assessed as decrease in fasting blood glucose level at 3 to 10 mg/kg, po measured at 4 hrs by glucometer; format: functional, organism-based
[30] = tested on: Mus musculus; test: Toxicity in streptozotocin-induced ICR mouse type-2 diabetic model assessed as effect on body weight at 3 to 30 mg/kg, po after 24 hrs; format: organism-based; set-up: dose 3-30 mg/kg, route oral; details: in vivo
[31] = target: Kappa-type opioid receptor (Homo sapiens) (UniProt P41145); test: Binding affinity to kappa opioid receptor (unknown origin) at 10 uM by agonist displacement assay relative to control
[32] = Plasma concentration in streptozotocin-induced ICR mouse type-2 diabetic model at 3 mg/kg, po measured at 8 hrs by HPLC/MS/MS analysis; format: ADME, organism-based; set-up: dose 3 mg/kg, route oral
[33] = Volume of distribution at steady state in mouse at 3 mg/kg, iv; format: ADME, organism-based; set-up: dose 3 mg/kg, route intravenous; details: in vivo, read-out: Vdss

T3 sequence (P47871 whole entry): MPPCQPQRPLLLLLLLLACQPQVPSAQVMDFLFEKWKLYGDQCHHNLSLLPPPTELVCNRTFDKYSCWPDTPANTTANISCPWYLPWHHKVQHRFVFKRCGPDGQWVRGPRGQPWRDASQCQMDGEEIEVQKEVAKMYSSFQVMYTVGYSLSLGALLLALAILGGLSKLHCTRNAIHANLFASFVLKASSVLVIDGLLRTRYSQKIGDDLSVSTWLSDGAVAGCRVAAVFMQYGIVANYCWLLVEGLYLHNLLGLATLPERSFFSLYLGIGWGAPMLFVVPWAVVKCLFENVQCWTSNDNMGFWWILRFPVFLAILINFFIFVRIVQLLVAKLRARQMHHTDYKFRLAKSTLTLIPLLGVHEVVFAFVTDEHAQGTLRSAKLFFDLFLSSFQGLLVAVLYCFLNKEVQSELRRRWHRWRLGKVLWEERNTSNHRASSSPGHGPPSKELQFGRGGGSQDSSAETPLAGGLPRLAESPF
Sequence of Kappa-type opioid receptor (Homo sapiens) (P41145 whole entry): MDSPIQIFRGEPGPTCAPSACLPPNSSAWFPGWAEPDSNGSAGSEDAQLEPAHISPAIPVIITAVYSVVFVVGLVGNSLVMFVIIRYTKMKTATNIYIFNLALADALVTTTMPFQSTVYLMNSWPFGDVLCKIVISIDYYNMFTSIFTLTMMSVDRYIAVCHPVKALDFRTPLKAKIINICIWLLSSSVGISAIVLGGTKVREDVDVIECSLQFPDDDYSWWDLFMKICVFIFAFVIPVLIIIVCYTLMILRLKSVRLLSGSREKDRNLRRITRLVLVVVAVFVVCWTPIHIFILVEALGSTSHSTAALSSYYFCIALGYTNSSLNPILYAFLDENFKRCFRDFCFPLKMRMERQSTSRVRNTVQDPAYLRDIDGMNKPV

CC(C)(C)CC[C@H](c1ccc(C(=O)NCc2nn[nH]n2)cc1)N1C(=O)C(c2cc(Cl)cc(Cl)c2)=N[C@]12CC[C@@H](C(C)(C)C)CC2
half-life [1]: 6.1 h
clearance [2]: 0.3 mL/min/kg
inhibition [3]: Active
pKi [4]: 5.61
inhibition [5]: 96%
AUC/dose [6]: 6 µM·h/mg/kg
bioavailability [7]: 31%
AUC/dose [8]: 30 µM·h/mg/kg
concentration at 8 h [9]: 8500 nM
concentration at 24 h [10]: 430 nM
AUC/dose [11]: 22 µM·h/mg/kg
Activity [12]: Active
pIC50 [13]: 7.34
bioavailability [14]: 32%
clearance [15]: 0.6 mL/min/kg
concentration at 8 h [16]: 4500 nM
half-life [17]: 8.3 h
half-life [18]: 11 h
bioavailability [19]: 49%
AUC/dose [20]: 2.2 µM·h/mg/kg
concentration at 24 h [21]: 810 nM
pIC50 [22]: 5.68
clearance [23]: 1.4 mL/min/kg
Activity [24]: Active
half-life [25]: 7.9 h
Vd [26]: 0.4 L/kg
Vd [27]: 1.3 L/kg
pIC50 [28]: 7.62
Activity [29]: Active
Activity [30]: Non-toxic
inhibition [31]: 75%
concentration at 8 h [32]: 1100 nM
Vd [33]: 1.3 L/kg
